# Data reported in US8999952B2, “Aripiprazole complex formulation and method” (Otsuka Pharmaceutical Co., Ltd., priority 2002, dated 2015).
# What was measured:
# [1] = tissue irritation at the intramuscular injection site; type: in vivo; conditions: intramuscular (IM) injectable solution in water-miscible co-solvent and water-immiscible solvent/co-solvent systems
# aqueous solubility = type: physicochemical; conditions: water; at room temperature
compound,measurement,setting,value
O=C1CCc2ccc(OCCCCN3CCN(c4cccc(Cl)c4Cl)CC3)cc2N1 [Aripiprazole],tissue irritation at the muscular site,[1],unacceptable (moderate to severe) tissue irritation
same,solubility,aqueous solubility,< 1 µg/mL
